Source: ChEMBL document CHEMBL1147119 (2007)
Values after ≈ are worked out from the molar mass of the structure shown. Active and inactive are the calls of the source. No cut-off for these calls is given here.

Key:
Bacillus anthracis = assay: Antimicrobial activity against Bacillus anthracis Ames; assay type: functional
[1] = Cmax in BALB/c mouse at 25 mg/kg, ip; assay type: ADME, organism-based; details: in vivo
[2] = Cmax in BALB/c mouse at 50 mg/kg, ip; assay type: ADME, organism-based; details: in vivo
[3] = Cmax in BALB/c mouse at 100 mg/kg, ip; assay type: ADME, organism-based; details: in vivo
[4] = AUC (0-6h) in BALB/c mouse at 25 mg/kg, ip; assay type: ADME, organism-based; details: plasma
[5] = AUC (0-6h) in BALB/c mouse at 50 mg/kg, ip; assay type: ADME, organism-based; details: plasma
[6] = AUC (0-6h) in BALB/c mouse at 100 mg/kg, ip; assay type: ADME, organism-based; details: plasma
[7] = Trough level in BALB/c mouse at 25 mg/kg, ip after 6 hrs; assay type: ADME, organism-based; details: in vivo
[8] = Trough level in BALB/c mouse at 50 mg/kg, ip after 6 hrs; assay type: ADME, organism-based; details: in vivo
[9] = Trough level in BALB/c mouse at 100 mg/kg, ip after 6 hrs; assay type: ADME, organism-based; details: in vivo
Mus musculus [10] = assay: Survival in BALB/c mouse infected with Bacillus anthracis Ames at 30 mg/kg, ip every 12 hrs for 14 days; assay type: functional, organism-based; set-up: dose 30 mg/kg
Mus musculus [11] = assay: Survival of Bacillus anthracis Ames infected BALB/c mouse at 30 mg/kg, ip every 12 hrs for 14 days administered 36 hrs after infection; assay type: functional
Mus musculus [12] = assay: Survival of Bacillus anthracis Ames infected BALB/c mouse at 30 mg/kg, ip every 12 hrs for 14 days administered 48 hrs after infection; assay type: functional
Mus musculus [13] = assay: Survival in BALB/c mouse infected with Bacillus anthracis Ames at 40 mg/kg every 6 hrs for 14 days; assay type: functional, organism-based; set-up: dose 40 mg/kg

Row | Structure (SMILES) | MIC (Bacillus anthracis) [mg/L] | Cmax [1] [µg/mL] | Cmax [2] [µg/mL] | Cmax [3] [µg/mL] | AUC(0-t) at 6 h [4] [µg·h/mL] | AUC(0-t) at 6 h [5] [µg·h/mL] | AUC(0-t) at 6 h [6] [µg·h/mL] | concentration at 6 h [7] [µg/mL] | concentration at 6 h [8] [µg/mL] | concentration at 6 h [9] [µg/mL] | Activity (Mus musculus [10]) | survival at 30 mg/kg (Mus musculus [11]) [%] | survival at 30 mg/kg (Mus musculus [12]) [%] | Activity (Mus musculus [13])
1 | O=C(O)c1cn(C2CC2)c2cc(N3CCNCC3)c(F)cc2c1=O [CIPROFLOXACIN] | 0.25 (≈ 0.754 µM) | 6.6 | 10.7 | 20 | 6.6 | 14.1 | 37.7 | 1 | 1.83 | 1.67 | Active | 80 | 80 | –
2 | C[C@H]1c2cccc(O)c2C(=O)C2=C(O)[C@]3(O)C(=O)C(C(N)=O)=C(O)[C@@H](N(C)C)[C@@H]3[C@@H](O)[C@@H]21.O [DOXYCYCLINE] | 0.03 | 4 | 6.7 | 12 | 13.7 | 23.4 | 57.2 | 1.33 | 1.67 | 6 | – | – | – | Active
